Data: patent EP4806910A1, “TRI-AGONIST COMPOUND” (priority 2023, dated 2025)

Tests used:
GIPR = biological target: T1, GIPR (Homo sapiens, UniProt P48546); assay: GIP activity test (cAMP, chemiluminescence); assay type: cell-based
T1 construct: expressed in transfected cells; host or cells: CHO-K1
T1 sequence (P48546 22-466): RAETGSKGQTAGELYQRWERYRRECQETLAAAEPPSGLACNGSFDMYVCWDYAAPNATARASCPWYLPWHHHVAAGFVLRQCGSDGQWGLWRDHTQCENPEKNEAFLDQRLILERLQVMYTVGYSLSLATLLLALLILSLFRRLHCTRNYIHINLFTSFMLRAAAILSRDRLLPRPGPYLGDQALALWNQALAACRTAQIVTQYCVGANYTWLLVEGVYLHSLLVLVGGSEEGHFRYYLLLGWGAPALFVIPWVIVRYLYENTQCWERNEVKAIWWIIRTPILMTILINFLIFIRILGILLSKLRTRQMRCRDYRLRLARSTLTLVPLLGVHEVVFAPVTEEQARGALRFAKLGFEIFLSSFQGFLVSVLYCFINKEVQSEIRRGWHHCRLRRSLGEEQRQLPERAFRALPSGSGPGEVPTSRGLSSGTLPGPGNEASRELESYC
Experimental: (§1) Upon stimulation by a specific agonist, GIPR activates the intracellular adenylate cyclase signaling pathway, resulting in an increase in cAMP levels and ultimately leading to insulin production and secretion. A cell line stably transfected with GIPR was stimulated with test compounds, thereby rapidly increasing intracellular cAMP levels. The relative luminescence units (RLU) of cells stimulated at various concentrations were measured by a chemiluminescence method, and the EC50 value of the agonist was calculated accordingly. This activity assay method is currently a commonly used method for evaluating GIP receptor agonist activity both domestically and internationally. A CHO-K1 cell line stably expressing GIPR was used. The stable cells were stimulated with agonists at different concentrations, and the relative luminescence units after stimulation at each concentration were measured to calculate the EC50 value of the agonist.

[1] = Preliminary pharmacokinetic evaluation, plasma concentration by LC-MS; assay type: in vivo, cynomolgus monkeys; conditions: for half-life: cynomolgus monkey, male cynomolgus monkeys, subcutaneously (SC), 0.2 mg/kg, plasma; for half-lives: cynomolgus monkeys, administered subcutaneously
Experimental: The test animals were male cynomolgus monkeys. Two animals were used for each compound. The compounds were administered subcutaneously at a dose of 0.2 mg/kg. Blood samples were collected via intravenous sampling prior to administration (0 h) and at 1 h, 2 h, 3 h, 4 h, 8 h, 12 h, 18 h, 24 h, 48 h, 96 h, 144 h, and 168 h after administration. Plasma samples were obtained by centrifugation. The plasma concentrations of the compounds were respectively determined by liquid chromatography - mass spectrometry (LC-MS).

GLP-1R = biological target: T2, GLP-1R (Homo sapiens, UniProt P43220); assay: GLP-1 activity test (cAMP, chemiluminescence); assay type: cell-based
T2 construct: expressed in transfected cells; host or cells: CHO-K1
Experimental: as §1, with “GLP-1R” for “GIPR”, “test” for “assay”, “GLP-1” for “GIP”

GCG-R = biological target: T3, GCG-R (Homo sapiens, UniProt P47871); assay: GCG activity test (cAMP, chemiluminescence); assay type: cell-based
T3 construct: expressed in transfected cells; host or cells: CHO-K1
Experimental: as §1, with “GCG-R” for “GIPR”, “GCG” for “GIP”, “internationally.” for “internationally. A CHO-K1 cell line stably expressing GIPR was used. The stable cells were stimulated with agonists at different concentrations, and the relative luminescence units after stimulation at each concentration were measured to calculate the EC50 value of the agonist.”
A CHO-K1 cell line stably expressing GCG-R was used. The stable cells were stimulated with agonists at different concentrations, and the relative luminescence units after stimulation at each concentration were measured to calculate the EC50 value of the agonist.

T2 sequence (P43220 24-463, species assumed): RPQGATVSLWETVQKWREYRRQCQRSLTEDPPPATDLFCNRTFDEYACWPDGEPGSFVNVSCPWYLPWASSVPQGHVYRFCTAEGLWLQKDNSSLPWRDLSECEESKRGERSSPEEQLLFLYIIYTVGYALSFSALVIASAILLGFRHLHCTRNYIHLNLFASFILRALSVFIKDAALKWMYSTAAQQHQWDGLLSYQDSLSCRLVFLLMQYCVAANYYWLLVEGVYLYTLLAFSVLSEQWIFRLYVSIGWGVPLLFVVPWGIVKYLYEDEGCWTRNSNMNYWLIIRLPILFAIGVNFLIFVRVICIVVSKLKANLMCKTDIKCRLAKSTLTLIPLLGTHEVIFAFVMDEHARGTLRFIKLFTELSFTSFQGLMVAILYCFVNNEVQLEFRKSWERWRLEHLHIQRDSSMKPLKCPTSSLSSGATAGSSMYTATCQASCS
T3 sequence (P47871 26-477, species assumed): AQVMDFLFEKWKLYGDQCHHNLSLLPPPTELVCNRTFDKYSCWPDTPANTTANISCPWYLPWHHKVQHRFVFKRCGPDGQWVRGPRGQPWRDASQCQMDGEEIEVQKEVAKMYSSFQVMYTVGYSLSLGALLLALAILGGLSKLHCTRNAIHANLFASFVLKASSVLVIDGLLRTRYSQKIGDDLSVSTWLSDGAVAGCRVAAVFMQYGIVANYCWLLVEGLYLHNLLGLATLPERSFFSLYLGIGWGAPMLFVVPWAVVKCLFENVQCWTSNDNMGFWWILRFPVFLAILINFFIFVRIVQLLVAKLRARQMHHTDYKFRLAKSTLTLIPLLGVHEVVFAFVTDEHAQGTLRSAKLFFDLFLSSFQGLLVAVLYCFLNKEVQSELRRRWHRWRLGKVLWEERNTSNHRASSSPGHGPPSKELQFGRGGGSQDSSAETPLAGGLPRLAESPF

| Compound | EC50 (GIPR) [nM] | half-life [1] [h] | half-lives [1] | EC50 (GLP-1R) [nM] | EC50 (GCG-R) [nM] |
| --- | --- | --- | --- | --- | --- |
| CC[C@H](C)[C@H](NC(=O)[C@H](Cc1ccccc1)NC(=O)[C@H](C)NC(=O)C(C)(C)NC(=O)[C@H](CCC(N)=O)NC(=O)[C@H](C)NC(=O)[C@H](CCCCNC(=O)COCCOCCNC(=O)CCC[C@H](NC(=O)CCCCCCCCCCCCCCCCCCC(=O)O)C(=O)O)NC(=O)[C@H](CCCCN)NC(=O)[C@H](CC(=O)O)NC(=O)[C@H](CC(C)C)NC(=O)C(C)(CC(C)C)NC(=O)[C@@H](NC(=O)[C@H](CO)NC(=O)[C@H](Cc1ccc(O)cc1)NC(=O)[C@H](CC(=O)O)NC(=O)[C@H](CO)NC(=O)[C@@H](NC(=O)C(C)(Cc1ccccc1F)NC(=O)[C@@H](NC(=O)CNC(=O)[C@H](CCC(N)=O)NC(=O)C(C)(C)NC(=O)[C@@H](N)Cc1ccc(O)cc1)[C@@H](C)O)[C@@H](C)O)[C@@H](C)CC)C(=O)N[C@@H](CCC(=O)O)C(=O)N[C@@H](Cc1ccc(O)cc1)C(=O)N[C@@H](CC(C)C)C(=O)N[C@@H](CC(C)C)C(=O)N[C@@H](CCC(=O)O)C(=O)NCCCCC(=O)N1CCC[C@H]1C(=O)N[C@@H](CO)C(=O)N[C@@H](CO)C(=O)NCC(=O)N[C@@H](C)C(=O)N1CCC[C@H]1C(=O)N1CCC[C@H]1C(=O)N1CCC[C@H]1C(=O)N[C@@H](CO)C(N)=O (stereo partly shown) [Compound 6] | 0.0188 | 115 | greater than 100 hours | 0.0375 | 0.141 |
| CC[C@H](C)[C@H](NC(=O)[C@H](Cc1ccccc1)NC(=O)[C@H](C)NC(=O)C(C)(C)NC(=O)[C@H](CCC(N)=O)NC(=O)[C@H](C)NC(=O)[C@H](CCCCNC(=O)COCCOCCNC(=O)CCC[C@H](NC(=O)CCCCCCCCCCCCCCCCCCC(=O)O)C(=O)O)NC(=O)[C@H](CCCCN)NC(=O)[C@H](CC(=O)O)NC(=O)[C@H](CC(C)C)NC(=O)C(C)(CC(C)C)NC(=O)[C@@H](NC(=O)[C@H](CO)NC(=O)[C@H](Cc1ccc(O)cc1)NC(=O)[C@H](CC(=O)O)NC(=O)[C@H](CO)NC(=O)[C@@H](NC(=O)C(C)(Cc1ccccc1)NC(=O)[C@@H](NC(=O)CNC(=O)[C@H](CCC(N)=O)NC(=O)C(C)(C)NC(=O)[C@@H](N)Cc1ccc(O)cc1)[C@@H](C)O)[C@@H](C)O)[C@@H](C)CC)C(=O)N[C@@H](CCC(=O)O)C(=O)N[C@@H](Cc1ccc(O)cc1)C(=O)N[C@@H](CC(C)C)C(=O)N[C@@H](CC(C)C)C(=O)N[C@@H](CCC(=O)O)C(=O)NCCCCC(=O)N1CCC[C@H]1C(=O)N[C@@H](CO)C(=O)N[C@@H](CO)C(=O)NCC(=O)N[C@@H](C)C(=O)N1CCC[C@H]1C(=O)N1CCC[C@H]1C(=O)N1CCC[C@H]1C(=O)N[C@@H](CO)C(N)=O (stereo partly shown) [Compound 2] | 0.0181 | 108 | greater than 100 hours | 0.0406 | 0.244 |
